Data from patent publication US20260226046A1 (JIANGSU HANSOH PHARMACEUTICAL GROUP CO., LTD., priority 2023, published 2026).

Columns and labels:
[1] = Solubility determination of crystal form C of tromethamine salt; assay type: physicochemical; conditions: 37 °C, thermodynamic from solid
Procedure: 1 to 2 mg of compound 28 was weighed into a 1.5 mL liquid phase vial, then 1 mL of pH buffer, artificial simulated gastric fluid (FaSSGF), artificial fasted-state simulated intestinal fluid (FaSSIF), artificial non-fasted-state simulated intestinal fluid (FeSSIF), and pure water were respectively added, and the mixture was placed on a constant temperature oscillator overnight at a temperature of 37 degrees. After 24 h, the sample solution was filtered with a 0.45 μm mixed water fiber filter membrane and then the filtrate was taken. The content was tested by HPLC. For the HPLC detection method, please refer to the solution stability analysis method in Section 1.2.

[2] = Thermodynamic stability experiment of crystal form (slurrying in solvents); assay type: physicochemical
Procedure: Through polycrystalline screening test, the relatively thermodynamically stable crystal form of salt was found.
The mixture was slurried at 40 degrees for 2 days, and centrifuged, and the solid was oven-dried in vacuo at 40 degrees overnight, and then XRD and other corresponding characterizations were performed.

O=C(O)c1ccc2nc(CN3CCC(c4cccc5c4OC(c4ccc(Cl)cc4F)C=C5)CC3)n(CC3CCO3)c2c1 (centres unmarked)
solubility at 24 h ([1]; aqueous buffer, USP Buffer pH 7.4, 37 degrees): 254 µg/mL | solubility at 24 h ([1]; FaSSIF, 37 degrees): 478 µg/mL | solubility at 24 h ([1]; FeSSIF, 37 degrees): 756 µg/mL | solubility at 24 h ([1]; water, H2O, 37 degrees): 66.4 µg/mL | XRD after slurrying for 2 days ([2]; EA 200 ul, 40 degrees): Crystal form C | XRD after slurrying for 2 days ([2]; EtOH 200 ul, 40 degrees): Crystal form C | XRD after slurrying for 2 days ([2]; Heptane 200 ul, 40 degrees): Crystal form C | XRD after slurrying for 2 days ([2]; IPA 200 ul, 40 degrees): Crystal form C | XRD after slurrying for 2 days ([2]; IPAC 200 ul, 40 degrees): Crystal form C | XRD after slurrying for 2 days ([2]; IPE 200 ul, 40 degrees): Crystal form C | XRD after slurrying for 2 days ([2]; MTBE 200 ul, 40 degrees): Crystal form C | XRD after slurrying for 2 days ([2]; hexane 200 ul, 40 degrees): Crystal form C | Stability of crystal form (in words) ([2]; slurried in solvents at 40 degrees for 2 days): very stable | Phenomenon after slurrying for 2 days ([2]; water 200 ul, 10 mg, 40 degrees): Dissolved clarification
